Data on 26 compounds can be found in patent publication US8420657B2 (Novartis AG, priority 2008, dated 2013).

This assay deals with T1, GST-JAK2(808-1132) (Homo sapiens, UniProt O60674).
T1 construct: GST-JAK2(808-1132); purchased Invitrogen (Carlsbad, USA) #4288
T1 sequence (O60674 808-1132): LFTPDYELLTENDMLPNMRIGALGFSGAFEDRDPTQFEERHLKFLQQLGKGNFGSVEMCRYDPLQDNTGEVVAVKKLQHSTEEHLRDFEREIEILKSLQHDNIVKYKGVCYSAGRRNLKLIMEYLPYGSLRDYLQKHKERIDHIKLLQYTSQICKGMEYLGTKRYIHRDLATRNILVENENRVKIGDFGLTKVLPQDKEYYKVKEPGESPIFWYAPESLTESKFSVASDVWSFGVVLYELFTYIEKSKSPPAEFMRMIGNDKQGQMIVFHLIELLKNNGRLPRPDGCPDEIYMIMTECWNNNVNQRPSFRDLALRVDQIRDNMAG
Put plainly: JAK2 kinase assay (Caliper mobility shift, LabChip 3000). The assay is classed as biochemical. The gist of the method:
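Recombinant GST-JAK2(808-1132) kinase domain with FITC-labelled JAK3tide peptide substrate and ATP; 60 min at 30 °C, EDTA stop. Substrate/product ratio read by microfluidic mobility shift; compounds at 8 final concentrations, 10 to 0.003 μM.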
With `CS(=O)(=O)c1ccc(-n2ccc3cnc(Nc4ccc(N5CCNCC5)nc4)nc32)cc1` [Example 282, [7-(4-Methanesulfonyl-phenyl)-7H-pyrrolo[2,3-d]pyrimidin-2-yl]-(6-piperazin-1-yl-pyridin-3-yl)-amine], the IC50 (in general, the concentration that gives 50% inhibition) worked out at 82 nM.
Take `CS(=O)(=O)c1ccc(-n2ccc3cnc(Nc4ccnc(N5CCNC6(CC6)C5)c4)nc32)cc1` [Example 275, [2-(4,7-Diaza-spiro[2.5]oct-7-yl)-pyridin-4-yl]-[7-(4-methanesulfonyl-phenyl)-7H-pyrrolo[2,3-d]pyrimidin-2-yl]-amine]: the IC50 turned out to be 7 nM.
For `CS(=O)(=O)c1ccc(-n2ccc3cnc(Nc4cccc(OCCN5CCOCC5)c4)nc32)cc1` [Example 35, [7-(4-Methanesulfonyl-phenyl)-7H-pyrrolo[2,3-d]pyrimidin-2-yl]-[3-(2-morpholin-4-yl-ethoxy)-phenyl]-amine] the value was 4.9 nM.
The value for `Cc1ccc(Nc2ncc3ccn(-c4ccc(C(=O)N5CCOCC5)c(F)c4)c3n2)cc1CN1CCN(C)CC1` [Example 326, (2-Fluoro-4-{2-[4-methyl-3-(4-methyl-piperazin-1-ylmethyl)-phenylamino]-pyrrolo[2,3-d]pyrimidin-7-yl}-phenyl)-morpholin-4-yl-methanone] was < 3 nM; that for `CN1CCN(C(=O)c2ccc(Nc3ncc4ccn(-c5ccc(S(C)(=O)=O)cc5)c4n3)cc2)CC1` [Example 28, {4-[7-(4-Methanesulfonyl-phenyl)-7H-pyrrolo[2,3-d]pyrimidin-2-ylamino]-phenyl}-(4-methyl-piperazin-1-yl)-methanone] was 4 nM; that for `Cc1cnn(Cc2cc(Nc3ncc4ccn(-c5cc(F)c(CN6CCOCC6)c(F)c5)c4n3)ccc2C)c1` [Example 481, [7-(3,5-Difluoro-4-morpholin-4-ylmethyl-phenyl)-7H-pyrrolo[2,3-d]pyrimidin-2-yl]-[4-methyl-3-(4-methyl-pyrazol-1-ylmethyl)-phenyl]-amine] was 5.1 nM.
On to `Cc1ccc(Nc2ncc3ccn(-c4cc(F)c(CN5CCOCC5)c(F)c4)c3n2)cc1CN1CCNC2(CC2)C1` [Example 373, [3-(4,7-Diaza-spiro[2.5]oct-7-ylmethyl)-4-methyl-phenyl]-[7-(3,5-difluoro-4-morpholin-4-ylmethyl-phenyl)-7H-pyrrolo[2,3-d]pyrimidin-2-yl]-amine], for which the half-inhibitory concentration (IC50) came to 4.3 nM.
For `COc1ccc(Nc2ncc3ccn(-c4ccc(S(C)(=O)=O)cc4)c3n2)cc1OC` [Example 5, (3,4-Dimethoxy-phenyl)-[7-(4-methanesulfonyl-phenyl)-7H-pyrrolo[2,3-d]pyrimidin-2-yl]-amine] the value was < 3 nM.
Regarding `O=C(c1ccc(-n2ccc3cnc(Nc4ccc(CN5CCN(C6CC6)CC5)cc4)nc32)cc1F)N1CCOCC1` [Example 330, (4-{2-[4-(4-Cyclopropyl-piperazin-1-ylmethyl)-phenylamino]-pyrrolo[2,3-d]pyrimidin-7-yl}-2-fluoro-phenyl)-morpholin-4-yl-methanone], the IC50 is 14 nM.
For `O=C(c1ccc(-n2ccc3cnc(Nc4ccc(CN5CCNCC5)cc4)nc32)cc1F)N1CCOCC1` [Example 313, {2-Fluoro-4-[2-(4-piperazin-1-ylmethyl-phenylamino)-pyrrolo[2,3-d]pyrimidin-7-yl]-phenyl}-morpholin-4-yl-methanone] the value was 3.7 nM; for `CN1CCN(c2ccc(Nc3ncc4ccn(-c5cc(F)c(CN6CCNC(=O)C6)c(F)c5)c4n3)cc2)CC1` [Example 341, 4-(2,6-Difluoro-4-{2-[4-(4-methyl-piperazin-1-yl)-phenylamino]-pyrrolo[2,3-d]pyrimidin-7-yl}-benzyl)-piperazin-2-one], ≤ 3 nM; for `COc1cc(C)c(Nc2ncc3ccn(-c4ccc(S(C)(=O)=O)cc4)c3n2)cc1OC` [Example 11, (4,5-Dimethoxy-2-methyl-phenyl)-[7-(4-methanesulfonyl-phenyl)-7H-pyrrolo[2,3-d]pyrimidin-2-yl]-amine], 190 nM.
Regarding `Cc1ccc(Nc2ncc3ccn(-c4ccc(C(=O)N5CCOCC5)c(F)c4)c3n2)cc1CN1CCOCC1` [Example 327, {2-Fluoro-4-[2-(4-methyl-3-morpholin-4-ylmethyl-phenylamino)-pyrrolo[2,3-d]pyrimidin-7-yl]-phenyl}-morpholin-4-yl-methanone], the IC50 was < 3 nM.
For `COc1ccc(Nc2ncc3ccn(-c4ccc(S(C)(=O)=O)cc4)c3n2)cc1` [Example 20, [7-(4-Methanesulfonyl-phenyl)-7H-pyrrolo[2,3-d]pyrimidin-2-yl]-(4-methoxy-phenyl)-amine] the value was 3.9 nM; for `COc1cc(Nc2ncc3ccn(-c4ccc(S(C)(=O)=O)cc4)c3n2)cc(OC)c1` [Example 23, (3,5-Dimethoxy-phenyl)-[7-(4-methanesulfonyl-phenyl)-7H-pyrrolo[2,3-d]pyrimidin-2-yl]-amine], 3.6 nM; for `Cc1ccc(Nc2ncc3ccn(-c4cc(F)c(CN5CCOCC5)c(F)c4)c3n2)cc1Cn1cc(CCO)cn1` [Example 467, 2-(1-{5-[7-(3,5-Difluoro-4-morpholin-4-ylmethyl-phenyl)-7H-pyrrolo[2,3-d]pyrimidin-2-ylamino]-2-methyl-benzyl}-1H-pyrazol-4-yl)-ethanol], 4.6 nM.
For `CC(C)(C)OC(=O)N1CCCC1c1ccc(Nc2ncc3ccn(-c4ccc(S(C)(=O)=O)cc4)c3n2)cc1` (centres unmarked) [Example 46, 2-{4-[7-(4-Methanesulfonyl-phenyl)-7H-pyrrolo[2,3-d]pyrimidin-2-ylamino]-phenyl}-pyrrolidine-1-carboxylic acid tert-butyl ester], the IC50 turned out to be 38 nM.
As for `CS(=O)(=O)c1ccc(-n2ccc3cnc(Nc4ccc(N5CCNCC5)cc4)nc32)cc1` [Example 37, [7-(4-Methanesulfonyl-phenyl)-7H-pyrrolo[2,3-d]pyrimidin-2-yl]-(4-piperazin-1-yl-phenyl)-amine], the IC50 was < 3 nM.
Turning to `O=C1NC(c2ccc(Nc3ncc4ccn(-c5cc(F)c(CN6CCOCC6)c(F)c5)c4n3)cc2)CN2CCCCC12` (centres unmarked) [Example 389, 3-{4-[7-(3,5-Difluoro-4-morpholin-4-ylmethyl-phenyl)-7H-pyrrolo[2,3-d]pyrimidin-2-ylamino]-phenyl}-hexahydro-pyrido[1,2-a]pyrazin-1-one], the IC50 was ≤ 3 nM.
For `Cc1ccc(Nc2ncc3ccn(-c4cc(F)c(CN5CCOCC5)c(F)c4)c3n2)cc1COC1CNC1` [Example 420, [3-(Azetidin-3-yloxymethyl)-4-methyl-phenyl]-[7-(3,5-difluoro-4-morpholin-4-ylmethyl-phenyl)-7H-pyrrolo[2,3-d]pyrimidin-2-yl]-amine], the IC50 was ≤ 3 nM.
As to `Fc1cc(-n2ccc3cnc(Nc4ccncc4)nc32)cc(F)c1CN1CCOCC1` [Example 211, [7-(3,5-Difluoro-4-morpholin-4-ylmethyl-phenyl)-7H-pyrrolo[2,3-d]pyrimidin-2-yl]-pyridin-4-yl-amine], the IC50 was found to be 5.9 nM.
`CC(=O)N1CCN(Cc2ccc(Nc3ncc4ccn(-c5cc(F)c(C(=O)N6CCOCC6)c(F)c5)c4n3)cc2)CC1` [Example 323, 1-[4-(4-{7-[3,5-Difluoro-4-(morpholine-4-carbonyl)-phenyl]-7H-pyrrolo[2,3-d]pyrimidin-2-ylamino}-benzyl)-piperazin-1-yl]-ethanone]: the IC50 turned out to be 3.2 nM.
The value for `CC(C)(C)OC(=O)N1CCC(n2cc(Nc3ncc4ccn(-c5cc(F)c(CN6CCOCC6)c(F)c5)c4n3)cn2)CC1` [Example 320, 4-{4-[7-(3,5-Difluoro-4-morpholin-4-ylmethyl-phenyl)-7H-pyrrolo[2,3-d]pyrimidin-2-ylamino]-pyrazol-1-yl}-piperidine-1-carboxylic acid tert-butyl ester] was 9.5 nM.
For the compound `CCN1CCN(Cc2ccc(Nc3ncc4ccn(-c5cc(F)c(CN6CCOCC6)c(F)c5)c4n3)nc2)CC1` [Example 316, [7-(3,5-Difluoro-4-morpholin-4-ylmethyl-phenyl)-7H-pyrrolo[2,3-d]pyrimidin-2-yl]-[5-(4-ethyl-piperazin-1-ylmethyl)-pyridin-2-yl]-amine], the IC50 was 73 nM.
For `CS(=O)(=O)c1ccc(-n2ccc3cnc(Nc4ccc(CN5CCNCC5)cc4)nc32)cc1` [Example 52, [7-(4-Methanesulfonyl-phenyl)-7H-pyrrolo[2,3-d]pyrimidin-2-yl]-(4-piperazin-1-ylmethyl-phenyl)-amine] the value was < 3 nM.
For `O=C(c1c(F)cc(-n2ccc3cnc(Nc4ccnc(N5CCNC6(CC6)C5)c4)nc32)cc1F)N1CCOCC1` [Example 281, (4-{2-[2-(4,7-Diaza-spiro[2.5]oct-7-yl)-pyridin-4-ylamino]-pyrrolo[2,3-d]pyrimidin-7-yl}-2,6-difluoro-phenyl)-morpholin-4-yl-methanone], the IC50 is 24 nM.
